{"source": "patent US10562890B2", "about": "“Cancer therapeutics” (UNIVERSITY OF VIRGINIA PATENT FOUNDATION, priority 2014, dated 2020)", "key": {"[1]": {"test_system": "inducible Runx1 (iRx) ES cells", "assay": "Inducible Runx1 (iRx) ES cell differentiation system, FACS", "assay_type": "cell-based", "description": "FIG. 3A is a schematic diagram representing the inducible Runx1 (iRx) ES cell differentiation system. ES cells were allowed to form embryoid bodies (EB) in IVD culture media and hemangioblast Flk1 positive cells were sorted and seeded into blast culture media. After 2 days, a second Flk1 sort was performed and Flk1 positive cells were cultured in hemogenic endothelium culture conditions. In the absence of doxycycline (−dox), Runx1 is absent and cells cannot progress from the HE1 stage of development. In the presence of doxycycline (+dox), Runx1 is expressed and differentiation progresses, resulting in the formation of CD41+ve/c-kit+ve floating progenitors.\nFIG. 3C provides representative FACS histograms showing staining of the surface markers CD41 and c-kit in cells treated with the compounds and in the presence or absence of doxycycline, as indicated.\nFIG. 3D provides representative FACS histograms showing staining of Annexin V and Propidium Iodide (PI) in cells treated with compounds Al-10-104 and Al-4-88 in the absence or presence of doxycycline, as indicated."}, "[2]": {"molecular_target": "CBFβ binding to the RUNX1 Runt domain (Homo sapiens (Human), UniProt Q13951)", "sequence (Q13951 1-141)": "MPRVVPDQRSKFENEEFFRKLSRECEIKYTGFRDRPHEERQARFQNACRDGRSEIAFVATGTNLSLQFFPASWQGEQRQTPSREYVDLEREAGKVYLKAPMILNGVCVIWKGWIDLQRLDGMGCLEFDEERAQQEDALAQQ", "assay": "FRET assay, inhibition of CBFβ binding to the RUNX1 Runt domain", "conditions": "inhibition of wild-type CBFβ binding to the RUNX1 Runt domain; NA = not active", "from_the_text": "Fluorescence Resonance Energy Transfer (FRET) Assay:\nAs described in U.S. Pat. No. 8,748,618 and published PCT application WO2010/132684, a FRET assay can be used to effectively monitor the inhibition of CBF binding to the Runt domain of RUNX proteins (as well as for CBFβ-SMMHC binding to the Runt domain of RUNX proteins). For the assay, the green fluorescent protein derivative Cerulean is fused to the N-terminus of the Runt domain and the green fluorescent protein derivative Venus to the N-terminus of CBFβ (Gorczynski, M. J., J. Grembecka, et al. (2007), “Allosteric inhibition of the protein-protein interaction between the leukemia-associated proteins Runx1 and CBFbeta.” Chem Biol 14(10): 1186-97), or to CBFβ-SMMHC (Illendula, A. et al. Chemical biology. A small-molecule inhibitor of the aberrant transcription factor CBFbeta-SMMHC delays leukemia in mice. Science 347, 779-784, doi:10.1126/science.aaa0314 (2015)). The ratio of the emission intensities at 525 nm and 474 nm, measured after excitation at 433 nm, was used as the readout in this assay. The dynamic range for the FRET assay was determined by adding a 30-fold excess of untagged CBFβ (or CBFβ-SMMHC) to the assay and the associated change in the FRET ratio was defined as 100% inhibition."}, "[3]": {"test_system": "OVCAR4 ovarian cancer cells", "assay": "CellTiter-Glo viability assay, OVCAR4", "assay_type": "cell-based", "conditions": "Homo sapiens, OVCAR-4, OVCAR4, 72 hours", "description": "OVCAR8 cells were grown in RPMI 1640 supplemented with 10% Fetal bovine serum and 1% antibiotics. OVCAR4 cells were grown in RPMI 1640 supplemented with 20% fetal bovine serum and 1% antibiotics. Cells growing at approximately 70% confluency were trypsinized and 2500 cells per well were re-plated in opaque bottomed 96-well plates.\n24 hours after plating, chemical compounds diluted in DMSO were mixed with cell growth media and added to cells. Compounds mixed with media were made at 10× concentration. Cells treated with compounds were incubated for 72 hours in a humidified incubator at 37° C. supplemented with 5% CO2. Percentage of cells viable after 72 hours was determined by CellTitler-Glo according to the manufacturer's instructions. Data analysis was performed using GraphPad 5.0.\nIn the graph, the ordinate represents % inhibition and the abscissa represents the log value of the concentration of the compound."}}, "data": [{"molecule": "COc1cccnc1-c1nc2cc(OC(F)(F)F)ccc2[nH]1", "note": "[Al-10-104]", "values": [{"measurement": "percentage of cells expressing c-kit and CD41", "setting": "[1]; 10 μM, in the presence of doxycycline", "result": "reduced"}, {"measurement": "apoptosis (Annexin V and PI staining)", "setting": "[1]; adherent cells, absence or presence of doxycycline", "result": "apoptosis is not increased"}, {"measurement": "IC50", "setting": "[2]", "result": "2.65 ± 0.18", "unit": "µM"}, {"measurement": "IC50", "setting": "[3]", "result": 5.86, "unit": "µM"}]}]}
